In US20050059626A1, “Methods of preventing and treating viral infections using immunomodulatory polynucleotide sequences” (priority 2000, published 2005):

B1: murine IL-12: murine IL-12, 100 ng injected intraperitoneally as comparator in STC mice (protein, UniProt P43431 23-215; P43432 23-335, looked up)
Interleukin-12 subunit alpha: RVIPVSGPARCLSQSRNLLKTTDDMVKTAREKLKHYSCTAEDIDHEDITRDQTSTLKTCLPLELHKNESCLATRETSSTTRGSCLPPQKTSLMMTLCLGSIYEDLKMYQTEFQAINAALQNHNHQQIILDKGMLVAIDELMQSLNHNGETLRQKPPVGEADPYRVKMKLCILLHAFSTRVVTINRVMGYLSSA
Interleukin-12 subunit beta: MWELEKDVYVVEVDWTPDAPGETVNLTCDTPEEDDITWTSDQRHGVIGSGKTLTITVKEFLDAGQYTCHKGGETLSHSHLLLHKKENGIWSTEILKNFKNKTFLKCEAPNYSGRFTCSWLVQRNMDLKFNIKSSSSSPDSRAVTCGMASLSAEKVTLDQRDYEKYSVSCQEDVTCPTAEETLPIELALEARQQNKYENYSTSFFIRDIIKPDPPKNLQMKPLKNSQVEVSWEYPDSWSTPHSYFSLKFFVRIQRKKEKMKETEEGCNQKGAFLVEKTSTEVQCKGGNVCVQAQDRYYNSSCSKWACVPCRVRS

Experiments:
HSV-1 [1] = experiment: Viral titer from Vero cells pre-treated with oligonucleotide, HSV-1; assay type: cell-based, African Green monkey (Vero cells); details: cells infected with HSV-1
Description: (§1) Vero cells, a cell line derived from African Green monkey kidney, were pre-treated with varying concentrations of ISS or non-ISS oligonucleotides for varying times prior to the addition of HSV-1 or HSV-2. Oligonucleotides were used at 1 μg/ml or 10 μg/ml and the cells were incubated with the oligonucleotides for 30 seconds, 10 minutes or 24 hours. Viral titers were calculated as a percent of control titer generated by cells not treated with the oligonucleotides. The data are expressed as percent of control titer.

HSV-2 [2] = experiment: Viral titer from Vero cells pre-treated with oligonucleotide, HSV-2; assay type: cell-based, African Green monkey (Vero cells); details: cells infected with HSV-2
Description: as §1

HSV-2 [3] = experiment: Viral titer after pre-treating HSV-2 virus with oligonucleotide, Vero cells; assay type: cell-based, African Green monkey (Vero cells)
Description: (§2) HSV-1 or HSV-2 virus was pre-treated with varying concentrations of ISS or non-ISS oligonucleotides for 10 minutes prior to adding the mixture to plated Vero cells. Oligonucleotides were used at 1 μg/ml or 10 μg/ml. Viral titers were calculated as a percent of control titer generated by cells not treated with the oligonucleotides. The data are expressed as percent of control titer.

HSV-1 [4] = experiment: Viral titer after pre-treating HSV-1 virus with oligonucleotide, Vero cells; assay type: cell-based, African Green monkey (Vero cells)
Description: as §2

HSV-2 strain MS = experiment: Recurrent genital HSV-2 disease in guinea pigs; assay type: in vivo, Swiss Hartley guinea pigs; details: 3 times/day for 7 days starting 6 hours post inoculation (21 treatments)
HBV = experiment: Chronic HBV model: serum HBV DNA and HBsAg in STC transgenic mice; assay type: in vivo, STC strain transgenic mice; details: STC mice; ISS 100 μg SC; murine IL-12 100 ng IP days 12, 13, 14
Description: ISS activity was tested in an animal model of chronic hepatitis. An ISS-containing phosphorothioate oligonucleotide (5′-[…]-3′) (SEQ ID NO:1), was delivered to STC strain transgenic mice, followed by measurement of HBV DNA and HBsAg production.
STC line mice were developed at Stanford University by Patricia Marion. The majority of these mice secrete HBV of the Ayw genotype (Galibert et al. (1979) Nature 281:646) to titers of 10^6-8 viral genome equivalents per ml of serum. STC mice were derived from the FVB strain, and were constructed by microinjection of HBV genomic DNA.
Approximately one month old mice were bled and tested for serum levels of HBsAg, which is predictive of viral DNA titer. A pool of 40 STC mice with approximately equal levels of HBsAg were selected and randomly assigned to four treatment groups of 10 animals each. The groups were treated as follows: • 1. 100 μg of ISS injected subcutaneously, once per week for 3 weeks (days 0, 7, 14) • 2. 100 μg of ISS injected subcutaneously, one injection at day 14 • 3. 100 ng of murine 1L-12 injected intraperitoneally on days 12, 13, and 14. • 4. PBS injected subcutaneously (days 0, 7, 14)
Blood samples were taken at day 0, 7, 14, 15 (22 hr after last IL-12 injection), 18, 28 and 35. Serum prepared from the blood samples was tested for HBV DNA by quantitative PCR (testing performed under contract by Hepadnavirus Testing, Inc.), and HBsAg using a commercially available EIA kit for HBsAg from Abbott Laboratories. Animals were sacrificed at day 35 and livers were collected for histologic analysis.

[5] = cells pre-treated 1 μg/ml, 30 sec
[6] = cells pre-treated 1 μg/ml, 10 min
[7] = cells pre-treated 1 μg/ml, 24 hr
[8] = cells pre-treated 10 μg/ml, 30 sec
[9] = cells pre-treated 10 μg/ml, 10 min
[10] = cells pre-treated 10 μg/ml, 24 hr
[11] = HSV-2 virus pre-treated 10 minutes with 1 μg/ml
[12] = HSV-2 virus pre-treated 10 minutes with 10 μg/ml
[13] = HSV-1 virus pre-treated 10 minutes with 1 μg/ml
[14] = HSV-1 virus pre-treated 10 minutes with 10 μg/ml

Molecule	Viral titer, percent of control titer (HSV-1 [1]; [5])	Viral titer, percent of control titer (HSV-1 [1]; [6])	Viral titer, percent of control titer (HSV-1 [1]; [7])	Viral titer, percent of control titer (HSV-1 [1]; [8])	Viral titer, percent of control titer (HSV-1 [1]; [9])	Viral titer, percent of control titer (HSV-1 [1]; [10])	Viral titer, percent of control titer (HSV-2 [2]; [5])	Viral titer, percent of control titer (HSV-2 [2]; [6])	Viral titer, percent of control titer (HSV-2 [2]; [7])	Viral titer, percent of control titer (HSV-2 [2]; [8])	Viral titer, percent of control titer (HSV-2 [2]; [9])	Viral titer, percent of control titer (HSV-2 [2]; [10])	Viral titer, percent of control titer (HSV-2 [3]; [11])	Viral titer, percent of control titer (HSV-2 [3]; [12])	Viral titer, percent of control titer (HSV-1 [4]; [13])	Viral titer, percent of control titer (HSV-1 [4]; [14])	Cumulative recurrent mean lesion days (HSV-2 strain MS)	Effect on serum HBV DNA viral titer (HBV)
5′-TGACTGTGAAGGTTAGAGATGA-3′ (chemistry not given here) [SEQ ID NO: 9, reference compound]	100% of control titer	99% of control titer	101% of control titer	96% of control titer	100% of control titer	97% of control titer	98% of control titer	96% of control titer	103% of control titer	103% of control titer	97% of control titer	99% of control titer	98% of control titer	106% of control titer	102% of control titer	103% of control titer	–	–
5′-TGACTGTGAACCTTAGAGATGA-3′ (chemistry not given here) [SEQ ID NO: 12, non-ISS control oligonucleotide, reference compound]	132% of control titer	98% of control titer	97% of control titer	141% of control titer	100% of control titer	94% of control titer	111% of control titer	–	–	129% of control titer	100% of control titer	98% of control titer	100% of control titer	97% of control titer	98% of control titer	101% of control titer	–	–
Nc1nc2c(ncn2COCCO)c(=O)[nH]1 [Acyclovir, reference compound]	–	–	–	–	–	–	–	–	–	–	–	–	–	–	–	–	significant reduction in cumulative recurrent mean lesion days	–
5′-TCGTCGAACGTTCGTTAACGTTCG-3′ (listed as DNA, chemistry not given here) [SEQ ID NO: 11, ISS oligonucleotide]	129% of control titer	95% of control titer	87% of control titer	122% of control titer	96% of control titer	78% of control titer	119% of control titer	–	–	136% of control titer	–	–	101% of control titer	97% of control titer	100% of control titer	100% of control titer	–	–
B1	–	–	–	–	–	–	–	–	–	–	–	–	–	–	–	–	–	effective in reducing viral titer
